Test results published in ChEMBL document CHEMBL1949654, “Discovery of a Potent Pyrazolopyridine Series of γ-Secretase Modulators” (ACS Med Chem Lett, 2011).
The source made the active and inactive calls. The rule behind the calls is not given here.

Columns and labels:
[1] = tested on: Rattus norvegicus; assay: Antialzheimer activity in CD rat assessed as reduction in amyloid beta total CSF level at 30 mg/kg, po measured after 3 hrs; assay type: functional, organism-based; set-up: dose 30 mg/kg
[2] = tested on: HEK293; assay: Inhibition of gamma-secretase expressed in HEK293 cells assessed as reduction in Notch cleavage up to 20 uM; assay type: cell-based
[3] = Inhibition of gamma secretase-mediated amyloid beta (1 to 42) production expressed in HEK293 cells overexpressing APP Swedish mutant after 5 hrs by immunoassay; assay type: cell-based
[4] = tested on: Rattus norvegicus; assay: Antialzheimer activity in CD rat assessed as reduction in amyloid beta (1 to 40) CSF level at 30 mg/kg, po measured after 3 hrs; assay type: functional, organism-based; set-up: dose 30 mg/kg
[5] = Selectivity ratio of IC50 for gamma secretase-mediated amyloid beta total production to IC50 for gamma secretase-mediated amyloid beta (1 to 42) production
[6] = species: Mus musculus; assay: Inhibition of mouse gamma-secretase assessed as reduction in reduction in Hes-1 expression up to 20 uM
[7] = species: Canis lupus familiaris; assay: Inhibition of dog gamma-secretase assessed as reduction in reduction in Hes-1 expression up to 20 uM
[8] = Drug uptake in CD rat plasma at 30 mg/kg, po measured after 3 hrs; assay type: ADME, organism-based; set-up: dose 30 mg/kg, route oral
[9] = Drug uptake in CD rat brain at 30 mg/kg, po measured after 3 hrs; assay type: ADME, organism-based; set-up: dose 30 mg/kg, route oral; conditions: read-out: Drug uptake
[10] = tested on: Rattus norvegicus; assay: Antialzheimer activity in CD rat assessed as reduction in amyloid beta (1 to 42) CSF level at 30 mg/kg, po measured after 3 hrs; assay type: functional; set-up: scale not given: the % may be the effect or the level left
[11] = tested on: P-glycoprotein; assay: Drug transport assessed as P-glycoprotein-mediated basolateral to apical permeability; assay type: ADME; conditions: not told; read-out: permeability
[12] = tested on: P-glycoprotein; assay: Drug transport assessed as P-glycoprotein-mediated efflux ratio of compound transport from basolateral to apical side over apical to basolateral side; assay type: ADME; conditions: not told
[13] = tested on: P-glycoprotein; assay: Drug transport assessed as P-glycoprotein-mediated apical to basolateral permeability; assay type: ADME; conditions: not told; read-out: permeability

Row | Structure (SMILES) | IC50 [3] [nM] | Ratio IC50 [5] | inhibition [6] | inhibition [7] | concentration at 3 h [8] [nM] | concentration at 3 h [9] [nM] | Papp B→A [11] [×10⁻⁶ cm/s] | efflux ratio [12] | Papp A→B [13] [×10⁻⁶ cm/s] | inhibition [1] | inhibition [2] | inhibition [4] | Activity [10]
1 | CC[C@@H](c1cc(F)c(F)c(F)c1)n1cc(Cl)cc2c(-c3ccc(-n4cnc(C)c4)c(OC)c3)nnc1-2 | 43 | 463 | inactive | inactive | 7230 | 1610 |  |  |  | inactive | inactive | inactive | 30%
2 | COc1cc(-c2nnc3n([C@@H](C)c4cc(F)cc(F)c4)cc(Cl)cc2-3)ccc1-n1cnc(C)c1 | 38 | 6 | inactive | inactive |  |  |  |  |  | inactive | inactive | inactive | 
3 | COc1cc(-c2nnc3n([C@@H](C)c4ccc(F)c(F)c4)cc(Cl)cc2-3)ccc1-n1cnc(C)c1 | 66 | 301 | inactive | inactive | 6510 | 880 |  |  |  | inactive | inactive | inactive | 27%
4 | COc1cc(-c2nnc3n([C@@H](C)c4ccc(F)cc4)cc(C(F)F)cc2-3)ccc1-n1cnc(C)c1 | 123 | 52 | inactive | inactive |  |  |  |  |  | inactive | inactive | inactive | inactive
5 | COc1cc(-c2nnc3n(C(C)c4ccc(F)cc4)cccc2-3)ccc1-n1cnc(C)c1 (racemic) | 231 | 87 | inactive | inactive |  |  |  |  |  | inactive | inactive | inactive | 
6 | COc1cc(-c2nnc3n([C@@H](C)c4cc(F)cc(F)c4)cccc2-3)ccc1-n1cnc(C)c1 | 117 | 94 | inactive | inactive | 1960 | 140 | 32.4 | 3.85 | 8.5 | inactive | inactive | inactive | inactive
7 | COc1cc(-c2nnc3n([C@@H](C)c4ccc(F)cc4)cc(C#N)cc2-3)ccc1-n1cnc(C)c1 | 172 | 60 | inactive | inactive |  |  |  |  |  | inactive | inactive | inactive | 
8 | COc1cc(-c2nnc3n([C@@H](C)c4ccc(F)cc4)cc(C)cc2-3)ccc1-n1cnc(C)c1 | 85 | 161 | inactive | inactive |  |  | 41.2 | 8.5 | 4.8 | inactive | inactive | inactive | inactive
9 | COc1cc(-c2nnc3n([C@@H](C)c4ccc(F)cc4)cc(C(C)(F)F)cc2-3)ccc1-n1cnc(C)c1 | 143 | 66 | inactive | inactive | 30 |  |  |  |  | inactive | inactive | inactive | inactive
10 | COc1cc(-c2nnc3n([C@@H](C)c4cc(F)ccc4F)cc(Cl)cc2-3)ccc1-n1cnc(C)c1 | 71 | 151 | inactive | inactive | 2520 | 740 |  |  |  | inactive | inactive | inactive | 24%
11 | COc1cc(-c2nnc3n([C@@H](C)c4ccc(F)cc4)cc(CF)cc2-3)ccc1-n1cnc(C)c1 | 634 | 32 | inactive | inactive |  |  |  |  |  | inactive | inactive | inactive | 
12 | COc1cc(-c2nnc3n([C@H](C)c4ccc(F)cc4)cccc2-3)ccc1-n1cnc(C)c1 | 332 | 60 | inactive | inactive |  |  |  |  |  | inactive | inactive | inactive | 
13 | COc1cc(-c2nnc3n([C@@H](C)c4cc(F)c(F)c(F)c4)cc(Cl)cc2-3)ccc1-n1cnc(C)c1 | 107 | 186 | inactive | inactive | 5020 | 1220 |  |  |  | inactive | inactive | inactive | 45%
14 | COc1cc(-c2nnc3n([C@@H](C)c4ccc(F)cc4)cc(CO)cc2-3)ccc1-n1cnc(C)c1 | 81 | 248 | inactive | inactive |  |  |  |  |  | inactive | inactive | inactive | 

More lines, main results first:

Row | IC50 [3] [nM] | Ratio IC50 [5] | inhibition [6] | inhibition [7] | concentration at 3 h [8] [nM] | concentration at 3 h [9] [nM] | Papp B→A [11] [×10⁻⁶ cm/s] | efflux ratio [12] | Papp A→B [13] [×10⁻⁶ cm/s] | Structure (SMILES) | inhibition [1] | inhibition [2] | inhibition [4] | Activity [10]
15 | 140 | 42 | inactive | inactive |  |  |  |  |  | CC[C@@H](c1ccc(F)cc1)n1cccc2c(-c3ccc(-n4cnc(C)c4)c(OC)c3)nnc1-2 | inactive | inactive | inactive | 
16 | 168 | 119 | inactive | inactive |  |  |  |  |  | COc1ccc(Cn2cccc3c(-c4ccc(-n5cnc(C)c5)c(OC)c4)nnc2-3)cc1 | inactive | inactive | inactive | 
17 | 97 | 205 | inactive | inactive | 2880 | 170 | 31.4 | 33.8 | 0.9 | COc1cc(-c2nnc3n([C@@H](C)c4ccc(F)cc4)cccc2-3)ccc1-n1cnc(C)c1 | inactive | inactive | inactive | inactive
18 | 70 | 288 | inactive | inactive | 2740 | 920 |  |  |  | COc1cc(-c2nnc3n([C@@H](C)c4ccc(F)cc4)cc(Cl)cc2-3)ccc1-n1cnc(C)c1 | inactive | inactive | inactive | 32%
19 | 168 | 119 | inactive | inactive | 2150 | 100 |  |  |  | COc1cc(-c2nnc3n([C@@H](CO)c4ccc(F)cc4)cc(Cl)cc2-3)ccc1-n1cnc(C)c1 | inactive | inactive | inactive | inactive
20 | 481 | 42 | inactive | inactive |  |  |  |  |  | C=C(c1ccc(F)cc1)n1cc(Cl)cc2c(-c3ccc(-n4cnc(C)c4)c(OC)c3)nnc1-2 | inactive | inactive | inactive | 
21 | 182 | 110 | inactive | inactive |  |  |  |  |  | COc1ccc(COCc2cc3c(-c4ccc(-n5cnc(C)c5)c(OC)c4)nnc-3n([C@@H](C)c3ccc(F)cc3)c2)cc1 | inactive | inactive | inactive | 
22 | 316 | 63 | inactive | inactive |  |  |  |  |  | COc1cc(-c2nnc3n(C(CCS(C)(=O)=O)c4ccc(F)cc4)cc(Cl)cc2-3)ccc1-n1cnc(C)c1 (stereo unspecified) | inactive | inactive | inactive | 
